According to patent US9486422B2, “Small molecule inhibitors of Mcl-1 and the uses of thereof” (THE REGENTS OF THE UNIVERSITY OF MICHIGAN, priority 2011, dated 2016):

Tests used:
A1/Bfl-1 = target: T1, A1/Bfl-1 (Homo sapiens, UniProt Q16548); experiment: FP-based binding assay, A1/Bfl-1
T1 sequence (Q16548 1-151): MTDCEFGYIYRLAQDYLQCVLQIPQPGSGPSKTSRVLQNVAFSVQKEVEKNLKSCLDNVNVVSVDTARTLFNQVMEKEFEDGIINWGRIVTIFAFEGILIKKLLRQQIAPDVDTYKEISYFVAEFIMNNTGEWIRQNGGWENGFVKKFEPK

Bcl-w = target: T2, Bcl-w (Homo sapiens, UniProt Q92843); experiment: FP-based binding assay, Bcl-w
T2 sequence (Q92843 1-155): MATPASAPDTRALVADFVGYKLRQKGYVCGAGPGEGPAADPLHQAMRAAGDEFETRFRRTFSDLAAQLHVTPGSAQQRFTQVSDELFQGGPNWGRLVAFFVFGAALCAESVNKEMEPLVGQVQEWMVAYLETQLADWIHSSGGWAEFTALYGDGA

[1] = target: Mcl-1/Bax protein-protein interactions (Homo sapiens, UniProt Q07820); experiment: SPR competitive solution binding assay, Mcl-1 to immobilized Bax; details: Mcl-1 300 nM pre-incubated with inhibitor; read-out: IC50, inhibition of binding of Mcl-1 to Bax
Chain of Mcl-1/Bax protein-protein interactions (Q07820 171-327): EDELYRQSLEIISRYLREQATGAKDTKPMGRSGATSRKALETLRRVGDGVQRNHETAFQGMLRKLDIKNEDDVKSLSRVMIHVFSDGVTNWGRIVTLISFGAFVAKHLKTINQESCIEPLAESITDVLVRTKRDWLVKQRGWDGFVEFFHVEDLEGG
Experimental: SPR experiments were performed using Biacore 2000 optical biosensors. Recombinant Bax, residues 1 to 100 (Novus Biologicals) and Mcl-1 proteins were used for competitive solution binding experiments. The details for immobilization of Bax protein, determination of the binding affinity of Mcl-1 to Bax, and conditions for testing Mcl-1 compounds are provided.
Recombinant Bax protein (residues 1-100) purchased from Novus Biologicals, Inc., was immobilized on a CM-5 sensor chip at different densities using standard EDC/NHS coupling chemistry followed by ethanolamine deactivation of the surfaces. […] Determination of kon, koff and Kd were calculated by simultaneous non-linear regression using BIAEvaluation software.
Using the same Bax immobilized CM5 chip, SPR competitive solution binding experiments were performed by pre-incubated Mcl-1 protein (300 nM) with tested small-molecule inhibitors for at least 30 minutes and then the reaction mixture was injected over the surfaces of the chip. Response units were measured at 60 seconds in the dissociation phase and the specific binding was calculated by subtracting the control surface (Fc1) signal from the surfaces with immobilized Bax. […] IC50 values were determined by non-linear least squares analysis using Graph Pad Prism 5.0 software.

Panc-1 = experiment: Cell growth inhibition (WST-8), Panc-1; format: cell-based; details: Homo sapiens, PANC-1, 96 h; 4 days treatment
Experimental: (§1) Human PC cell lines AsPC-1, BxPC-3 and Capan-2 were cultured in RPMI 1640 medium, while Panc-1 and MiaPaCa were cultured in DMEM medium (Life Technologies), all supplemented with 10% fetal bovine serum (Thermo Scientific HyClone). The rate of cell growth inhibition after treatment with increasing concentrations of the tested compounds was determined by WST-8 assay as described in the manufacturers protocol (Dojindo Molecular Technologies Inc.).

MiaPaCa-2 = experiment: Cell growth inhibition (WST-8), MiaPaCa-2; format: cell-based; details: Homo sapiens, MIA PaCa-2, 96 h; 4 days treatment
Experimental: as §1

AsPc1 = experiment: Cell growth inhibition (WST-8), AsPc1; format: cell-based; details: Homo sapiens, ASPC1, 96 h; 4 days treatment
Experimental: as §1

Panc-1 cells = experiment: Induction of apoptosis, Annexin V/PI, Panc-1; format: cell-based, human
Experimental: An Annexin-V-FLUOS/Propidium iodide staining kit and ELISA detection kit (Roche Applied Science) were used to detect apoptosis in PC cells. Cells were treated with Mcl-1 inhibitors for different time points, harvested, washed with PBS and apoptosis was quantified according to manufacturer's protocol.

[2] = system: wild type (WT) murine embryonic fibroblasts (MEF); experiment: Induction of apoptosis in MEF WT cells; format: cell-based; details: 10 μM, 24 h
[3] = system: Bax/Bak-deficient (DKO) MEFs; experiment: Induction of apoptosis in MEF DKO cells; format: cell-based, murine; details: 10 μM, 24 h
[4] = system: activated Bax in Panc-1 cells; experiment: Bax activation, 6A7 anti-Bax immunostaining, Panc-1; format: cell-based, human; details: 24 h
Experimental: (§2) Cells mounted on glass slides were permeabilized with PBS containing 0.3% Triton X-100, and blocked with 1% bovine serum albumin in PBS for 30 min at room temperature, followed with overnight incubation with anti-Bak 6A7 (Calbiochem) at 4° C. After thorough washing of the sections in PBS, a secondary antibody labeled with DyLight 488 (Thermo Scientific) was added and incubated for 2 h at room temperature. Nuclei were visualized with DAPI. Samples were analyzed with a FluoView 500 Confocal Laser Scanning Microscope (Olympus).

[5] = system: activated Bax in BxPC-3 cells; experiment: Bax activation, 6A7 anti-Bax immunostaining, BxPC-3; format: cell-based, human; details: 24 h
Experimental: as §2

[6] = Metabolic stability assay, liver microsomes; format: in vitro ADME, mice; details: mouse, pooled mouse liver microsomes; 1 μM compound, 1.2 mg/ml microsomes, 37° C.
Experimental: Metabolic stability of UMI-77 was determined using the pooled mice liver microsomes (XenoTech, LLC). The conditions of the assay and quantification of UMI-77 in different time points are provided.
The β-NADPH (Sigma-Aldrich) was dissolved in 0.1 M phosphate buffer containing 3.3 mM MgCl2 right before use. The pooled mice liver microsomes (XenoTech, LLC) were diluted with 0.1 M phosphate buffer containing 3.3 mM MgCl2, followed by adding the reduced β-NADPH solution. After initiating the enzymes by adding β-NADPH, the mixture was incubated at 37° C. for […] The tested compound UMI-77 was added into the mixture and incubated at 37° C. The final concentrations of the compound, microsomes, β-NADPH, phosphate buffer and MgCl2 were 1 μM, 1.2 mg/ml, 1 mM, 0.1 M, and 3.3 mM, respectively. An aliquot of 40 μl of mixture was collected at 0, 5, 10, 15, 30, 45 and 60 min and the reaction was stopped immediately by adding 120 μl of ice-cold acetonitrile containing an internal standard (100 mg/mL). The incubation solution was centrifuged at 14000 rpm for 5 minutes to precipitate protein. The UMI-77 concentration was determined by LC/MS/MS (Agilent 1200 HPLC system, Agilent Technologies and QTRAP 3200 mass spectrometer, Applied Biosystems/MDS Sciex). UMI-77 was detected under negative ionization mode and the multiple reaction monitoring (MRM) ion transition was m/z 468.1→221.0.

BxPC-3 xenograft = BxPC-3 xenograft efficacy in SCID mice; format: in vivo; details: 60 mg/kg i.v., 5 days a week for two weeks
Experimental: For BxPC-3 subcutaneous model, 10×10^6 cells were subcutaneously injected into the flanks of 4-5 week old female severe combined immune deficient mice (ICR-SCID) (Taconic Farms) using 26 G ½ Precision Glide needles (Becton Dickinson). […] Tumors were measured twice weekly using a caliper and expressed in mg. To prevent any pain or discomfort, mice were euthanized and their tumors removed once they reached ˜1800 mg burden. […] Tumor weight was recorded throughout the treatment period using previously described methods.

O=C(O)CSc1cc(NS(=O)(=O)c2ccc(Br)cc2)c2ccccc2c1O [Compound 9, 2-((4-(4-Bromophenylsulfonamido)-1-hydroxynaphthalen-2-yl)thio)acetic acid]
fold lower affinity to A1/Bfl-1 than to Mcl-1 (selectivity) (A1/Bfl-1): 11 fold
Ki (A1/Bfl-1; read-out: A1/Bfl-1 Ki ± SD): 5.33 ± 1 µM
fold lower affinity to Bcl-w than to Mcl-1 (selectivity) (Bcl-w): 17 fold
Ki (Bcl-w; competitive FP, FAM-BID 2 nM, protein 40 nM, read-out: Bcl-w Ki ± SD): 8.19 ± 1.9 µM
IC50 [1]: 1.43 ± 0.14 µM
IC50 (Panc-1): 4.4 ± 1.3 µM
IC50 (MiaPaCa-2): 12.5 ± 1.01 µM
IC50 (AsPc1): 16.1 ± 4.2 µM
early apoptotic cells (Panc-1 cells; 5 μM, 24 hours): 15%
early apoptotic cells (Panc-1 cells; 5 μM, 48 hours): 21%
early apoptotic cells (Panc-1 cells; 10 μM, 24 hours): 21%
early apoptotic cells (Panc-1 cells; 10 μM, 48 hours): 49%
apoptosis in MEF WT cells [2]: more than 60%
apoptotic cells in MEF DKO cells [3]: 16%
concentration from which activated Bax increases [4]: ≥ 5 µM
concentration from which activated Bax increases [5]: ≥ 5 µM
half-life at 1 μM [6]: 45 min
tumor growth inhibition (BxPC-3 xenograft; day 19 (p<0.0001)): 65%
tumor growth inhibition (BxPC-3 xenograft; day 22 (p<0.003)): 56%
